Data on 5 compounds can be found in patent publication US10947575B2, “Rapid antimicrobial susceptibility test, based on an analysis of changes in morphology and growth pattern of a microbial cell under different concentrations of various antimicrobial agents, and automated cell image analysis system therefor” (priority 2014, dated 2021).

In experiment [1] the test system is S. aureus ATCC 29213. To be noted: time to result 16~20 hr; cited from earlier work.
The test system of experiment [2] is S. aureus ATCC 29213. Kind of experiment: MIC by the proposed method (SCMA), from morphology and growth pattern changes. It counts as cell-based. From the text: (§1) The bacterial cell in MAC 2.0™ (QuantaMatrix) was monitored through a S Plan Fluor ELWD 60X (NA 1.49) lens of an inverted optical microscope (Eclipse Ti—Nikon, IX71—Olympus) provided in a heating system, and then, an electron multiplying CCD camera (QuantEM:512SC Photometrics for Eclipse Ti) was used to obtain images of a region where is adjacent to an interface between the agarose well of MAC 2.0™ and the antimicrobial agents well, over time. […] In the AST method according to the inventive concept, minimal inhibitory concentration (MIC) was measured using the changes in morphology and growth pattern of the four reference strains (i.e., E. coli ATCC 25922, S. aureus ATCC 29213, P. aeruginosa ATCC 27853, and E. faecalis ATCC 29212) and was compared with MIC quality control (QC) per CLSI guidelines.

For experiment [3], the system named is E. coli ATCC 25922. The experiment is described as above. The conditions noted are these: time to result 3 hr. The class given is cell-based.
Description: as §1

The subject of experiment [4] is E. faecalis ATCC 29212. Described as above. The class given is cell-based. The conditions noted are these: time to result 4 hr.
Description: as §1

Experiment [5] concerns E. faecalis ATCC 29212. The conditions noted are these: time to result 16~20 hr, cited from earlier work.
The subject of experiment [6] is S. aureus ATCC 29213. Kind of experiment: AST by analysis of changes in morphology and growth pattern of a microbial cell (MAC 2.0 chip imaging). The class given is cell-based. To be noted: RRG = relatively rapid growth, RSG = relatively slow growth. From the text:
(§2) Four reference strains (E. coli ATCC 25922, S. aureus ATCC 29213, P. aeruginosa ATCC 27853, and E. faecalis ATCC 29212) were used as objective strains, in accordance with Clinical and Laboratory Standards Institute (CLSI) guidelines. […] The bacterial cell in MAC 2.0TM (QuantaMatrix) was monitored through a S Plan Fluor ELWD 60X (NA 1.49) lens of an inverted optical microscope (Eclipse Ti-Nikon, IX71-Olympus) provided in a heating system, and then, an electron multiplying CCD camera (QuantEM:512SC Photometrics for Eclipse Ti) was used to obtain images of a region where is adjacent to an interface between the agarose well of MAC 2.0TM and the antimicrobial agents well, over time.

Experiment [7] relates to E. coli ATCC 25922. The experiment is described as above. To be noted: Normal / Filament / Swelling. It counts as cell-based.
Description: as §2

The subject of experiment [8] is E. faecalis ATCC 29212. The description is as above. The class given is cell-based. The conditions noted are these: RRG = relatively rapid growth, RSG = relatively slow growth.
Description: as §2

In experiment [9] the test system is E. coli ATCC 25922. To be noted: time to result 16~20 hr; cited from earlier work.
In experiment [10] the test system is P. aeruginosa ATCC 27853. Kind of experiment: MIC by the proposed method (SCMA), from morphology and growth pattern changes. It counts as cell-based. To be noted: time to result 3 hr.
Description: as §1

Experiment [11] deals with P. aeruginosa ATCC 27853. To be noted: time to result 16~20 hr; cited from earlier work.
The test system of experiment [12] is P. aeruginosa ATCC 27853. Kind of experiment: AST by analysis of changes in morphology and growth pattern of a microbial cell (MAC 2.0 chip imaging). It counts as cell-based. The conditions noted are these: Normal / Filament / Swelling.
Description: as §2

Where [13] appears, read: time to result 4 hr, unit assumed.

Like-named read-outs stand apart in the source and are kept apart here.

Turning to `CC1(C)S[C@@H]2[C@H](NC(=O)[C@H](N)c3ccccc3)C(=O)N2[C@H]1C(=O)O` [Ampicillin], the “CLSI QC range (MIC)” value is 0.5~2 in experiment [1], 0.5~2 in experiment [5] and 2~8 in experiment [9]. Further, the SCMA Results (MIC) was 1 µg/mL in [2] (setting [13]), 2~4 in experiment [3] and 0.5~1 in [4]. For the same compound, the “Criteria (change in morphology and growth pattern)” value is given as “Normal” in experiment [6], “Filament” in experiment [7] and “Normal” in [8].
Take `CO[C@H]1/C=C/O[C@@]2(C)Oc3c(C)c(O)c4c(O)c(c(/C=N/N5CCN(C)CC5)c(O)c4c3C2=O)NC(=O)/C(C)=C\C=C\[C@H](C)[C@H](O)[C@@H](C)[C@@H](O)[C@@H](C)[C@H](OC(C)=O)[C@@H]1C` [Rifampin]: the entries for the “CLSI QC range (MIC)” value in experiment [1] and in [5] were 0.004~0.015 and 0.5~4, respectively. Besides, the “SCMA Results (MIC)” value was 0.004~0.08 (6 hr) in experiment [2] (6 hr) and 0.5 µg/mL in experiment [4]. Moreover, the “Criteria (change in morphology and growth pattern)” value in experiment [6] and in [8] was “RSG” in each case.
Turning to `CN[C@H](CC(C)C)C(=O)N[C@H]1C(=O)N[C@@H](CC(N)=O)C(=O)N[C@H]2C(=O)N[C@H]3C(=O)N[C@H](C(=O)N[C@H](C(=O)O)c4cc(O)cc(O)c4-c4cc3ccc4O)[C@H](O)c3ccc(c(Cl)c3)Oc3cc2cc(c3O[C@@H]2O[C@H](CO)[C@@H](O)[C@H](O)[C@H]2O[C@H]2C[C@](C)(N)[C@H](O)[C@H](C)O2)Oc2ccc(cc2Cl)[C@H]1O` [Vancomycin], the “CLSI QC range (MIC)” value in experiment [1] is recorded as 0.5~2; in experiment [5], 1~4. Besides, the SCMA Results (MIC) was 1 µg/mL in experiment [2] (setting [13]) and 2~4 in experiment [4]. Moreover, the entries for the “Criteria (change in morphology and growth pattern)” value in experiment [6] and in experiment [8] were “normal” and “Normal growth”, respectively.
Turning to Gentamicin, the “CLSI QC range (MIC)” value in experiment [1] was 0.12~1; in experiment [5] (unit assumed) it was ≤ 500 µg/mL; in [11], 0.5~2; in experiment [9], 0.25~1. Also, the “SCMA Results (MIC)” value in [10] was 0.5~1; in experiment [2] (time to result 4 hr), 0.25~0.5; in [3] (unit assumed), 0.25 µg/mL; in experiment [4] it was ≤ 500 µg/mL. The “Criteria (change in morphology and growth pattern)” value is listed as “Normal growth” in experiment [12], “Normal growth” in experiment [6], “Normal” in experiment [7] and “Normal” in experiment [8].
On to Penicillin, for which the entries for the “CLSI QC range (MIC)” value in experiment [1] and in experiment [5] were 0.25~2 and 1~4, respectively. Besides, the values for the SCMA Results (MIC) in experiment [2] (setting [13]) and in experiment [4] were 0.5 µg/mL and 1~2, respectively. The “Criteria (change in morphology and growth pattern)” value in experiment [6] and in [8] was “Normal” each time.
